From paper PMC12080252, “Daphnia magna as an Alternative Model for (Simultaneous) Bioaccumulation and Chronic Toxicity Assessment—Controlled Exposure Study Indicates High Hazard of Heterocyclic PAHs” (Environmental Science & Technology, 2025)
Values joined by “and” are separate entries in the source; they are usually repeats but may differ in a detail not shown here. Identical values can stand only once.

How the values were obtained:
[1] = Chronic reproduction toxicity test (OECD 211) with passive dosing; assay type: in vivo, Daphnia magna; settings: Daphnia magna, in vivo, other: waterborne exposure by passive dosing from PDMS disks, 21-day test, read-out: % offspring mortality of total offspring
Procedure, shortened: (§1)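 D. magna juveniles (<24 h) exposed individually 21 days by passive dosing from PDMS disks, static, 20 °C, 16:8 h light/dark, medium renewed three times weekly, fed daily; water concentrations measured initially and before renewal. Offspring per mother versus controls gave percent inhibition; EC10/EC20/EC50 from four-parameter logistic fit of log10 concentrations (Top 100, Bottom 0).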

[2] = test system: Daphnia magna; experiment: as above; assay type: in vivo; settings: for Total #dead offspring per mother (per vessel) / Total #offspring per mother (per vessel) / % inhibition (per vessel): individual vessels; for EC10: 21-day reproduction inhibition; for wet weight of parent daphnids, change relative to control: end of 21-d exposure; for % inhibition, avr. / % inhibition (per vessel): reproduction vs controls
Procedure, shortened: as §1

[3] = test system: D. magna; experiment: PNEC and risk quotient estimation; set-up: species or system Daphnia magna; settings: environmental concentration of surrogate (CRB, DBF, DBT) / PNEC
Source text: To ensure a precautionary approach, an AF of 100 was applied, which accounts for interspecies variability and uncertainties in extrapolating laboratory findings to real-world conditions.
Environmental concentration (EC) data are obtained from A CRB, B DBF, and C DBT by choosing the highest
concentration that remains below the solubility limit of the respective NSO-PAH, as described in Reference 24.

[4] = cited from earlier work
[5] = test system: D. magna; settings: acute test, at water solubility; cited from earlier work

c1ccc2c(c1)ccc1sc3ccccc3c12 [BNT, benzo[b]naphtho[1,2-d]thiophene]
mortality at 21 days, 0.07 µg/L ([1]; 0.07 µg/L (Fig. S8)): 1.8%
mortality at 21 days, 0.25 µg/L ([1]; 0.25 µg/L (Fig. S8)): 11.1%
mortality at 21 days, 0.38 µg/L ([1]; 0.38 µg/L (Fig. S8)): 11.7%
mortality at 21 days, 0.81 µg/L ([1]; 0.81 µg/L (Fig. S8)): 14.8%
mortality at 21 days, 1.94 µg/L ([1]; 1.94 µg/L (Fig. S8)): 14.2%
mortality at 21 days, 4.63 µg/L ([1]; 4.63 µg/L (Fig. S8)): 20.8%
mortality at 21 days, 12 µg/L ([1]; 12.00 µg/L (Fig. S8)): 28%
#average live offspring ([2]; 0.07 µg/L, 21 days): 67
%offspring mortality ([2]; 0.07 µg/L, 21 days): 1.76%
#total live offspring ([2]; 0.07 µg/L, 21 days, all vessels without outlier): 334
Total #dead offspring per mother (per vessel) ([2]; 0.07 µg/L, 21 days): 0 and 2
#average live offspring ([2]; 0.25 µg/L, 21 days): 67
%offspring mortality ([2]; 0.25 µg/L, 21 days): 11.09%
#total live offspring ([2]; 0.25 µg/L, 21 days, all vessels): 401
Total #dead offspring per mother (per vessel) ([2]; 0.25 µg/L, 21 days): 8 and 14 and 9 and 6 and 5
#average live offspring ([2]; 0.38 µg/L, 21 days): 62
%offspring mortality ([2]; 0.38 µg/L, 21 days): 11.71%
#total live offspring ([2]; 0.38 µg/L, 21 days, all vessels without vessel 2 (X)): 309
Total #dead offspring per mother (per vessel) ([2]; 0.38 µg/L, 21 days): 9 and 16 and 10 and 5 and 1
#average live offspring ([2]; 0.81 µg/L, 21 days): 52
%offspring mortality ([2]; 0.81 µg/L, 21 days): 14.75%
#total live offspring ([2]; 0.81 µg/L, 21 days, all vessels): 312
Total #dead offspring per mother (per vessel) ([2]; 0.81 µg/L, 21 days): 10 and 9 and 3 and 24 and 5
EC10 ([2]; 97.5-2.5% confidence interval in brackets): 0.33 (0.12-0.73) μg L^-1
EC10 ([2]; confidence interval in brackets): 1.40 (0.49-3.10) nmol L^-1
growth of parent D. magna (wet weight) ([2]; 21-day test, p-value <0.05): significantly inhibited D. magna growth
LOEC (lowest observed effect concentration, reproduction inhibition) ([2]; 21 days, p-value <0.05 vs controls): 0.8 μg L^–1
Total #offspring per mother (per vessel) ([2]; BNT avr. medium concentration 0.25 µg/L (methanol dosing 0.063 g/L), 21 days): 81 and 73 and 58 and 64 and 61
Total #offspring per mother (per vessel) ([2]; BNT avr. medium concentration 0.38 µg/L (methanol dosing 0.125 g/L), 21 days): 66 and 55 and 82 and 54 and 52
Total #offspring per mother (per vessel) ([2]; BNT avr. medium concentration 0.81 µg/L (methanol dosing 0.25 g/L), 21 days): 40 and 59 and 60 and 34 and 57 and 62
EA50 (effective chemical activity) ([2]; EC50/subcooled liquid solubility, eq 1): 0.026 unitless
Classification according to REACH Annex XIII ([2]; chronic EC10 < 10 μg L^–1): toxic to aquatic life
CTLBB (critical target lipid body burden) ([2]; derived from chronic EC10 using eq 3): 0.8 μmol g^-1 octanol
wet weight of parent daphnids, change relative to control ([2]; 0.07 µg/L (Fig. S9)): -11%
wet weight of parent daphnids, change relative to control ([2]; 0.25 µg/L (Fig. S9)): -19%
wet weight of parent daphnids, change relative to control ([2]; 0.38 µg/L (Fig. S9)): -17%
wet weight of parent daphnids, change relative to control ([2]; 0.81 µg/L (Fig. S9)): -3%
wet weight of parent daphnids, change relative to control ([2]; 1.94 µg/L (Fig. S9)): +13%
wet weight of parent daphnids, change relative to control ([2]; 4.63 µg/L (Fig. S9)): -24%
% inhibition, avr. ([2]; 0.07 µg/L, 21 days): 1.3%
% inhibition (per vessel) ([2]; 0.07 µg/L, 21 days): -3.4% and -4.9% and -1.9% and 15.8% and 1.0%
% inhibition, avr. ([2]; 0.25 µg/L, 21 days): 1.3%
% inhibition (per vessel) ([2]; 0.25 µg/L, 21 days): -19.6% and -7.8% and 14.3% and 5.5% and 9.9%
% inhibition, avr. ([2]; 0.38 µg/L, 21 days): 8.7%
% inhibition (per vessel) ([2]; 0.38 µg/L, 21 days): 2.5% and 18.8% and -21.1% and 20.2% and 23.2%
% inhibition, avr. ([2]; 0.81 µg/L, 21 days): 23.2%
% inhibition (per vessel) ([2]; 0.81 µg/L, 21 days): 40.9% and 12.9% and 11.4% and 49.8% and 15.8% and 8.4%
RQ (EC/PNEC) [3]: 3333
SW (water solubility) ([4]; measured in previous work): 0.026 µg/mL
log KOW ([4]; n-octanol-water partition coefficient): 5.75
log KOC ([4]; organic carbon-water partition coefficient): 5.50
effect on D. magna immobilization [5]: 35%
